# Experimental data: patent US20110039869A1, “COMPOSITION FOR INHIBITING THE ACTIVITY OF INOSITOL 1,4,5-TRIPHOSPHATE RECEPTOR SUBTYPE III” (Korea Institute of Science and Technology, priority 2008, published 2011)
# pIC50: −log10 of the molar value. “Also recorded” adds a separate entry of the source. Where two headings read alike, the source gives them in different places.
# Key:
# [1] = system: U178MG, U87MG, wtEGFR, and ΔEGRF cells; assay: Scrape motility assay; type: cell-based, human; conditions: 24 hours; 10 mM caffeine, 1 μM thapsigargin, 10 μM 2-APB, 20 μM CPA, 50 μM BAPTA-AM, 10 μM ryanodine
# Experimental: The cell lines were obtained from Emory Uni (U178MG) and ATCC (U87MG, T98G, and M59K). All cell lines were grown as monolayers in 12-well culture plates in serum-containing media (Emory Uni). […] To prevent proliferation, fluorodeoxyuridine (FdU/U; Sigma) was added. After incubation for 24 hours, the cells were fixed in 4% paraformaldehyde. The area of repopulation of three 10× fields within the scrape areas were determined and the mean percentage of scrape area to wound closure was determined.
# [2] = system: U178MG cells; assay: Ca2+ imaging: block against agonist-induced intracellular Ca2+ release in U178MG cells; type: cell-based, human; conditions: for TFLLR induced Ca2+ release: 10 mM compound; for pIC50: Homo sapiens, U178MG cells
# Experimental: 100 seconds after the treatment, the cells were divided into two separate groups, each being stimulated with GPCR (G-protein coupled receptors) agonists, i.e., […] or 10 μM bradykinin, respectively. […] The measurement of Ca^2+ concentration through the measurement of inward current was conducted as described in ‘Justin Lee, et al., The Journal of Physiology, Astrocytic control of synaptic NMDA receptor, 2007’, which is hereby incorporated by reference for all purposes as if fully set forth herein.
# After 100 seconds, the cells were stimulated with 30 μM TFLLR.
# Error bars indicate SEM. […] Such substance may include: iso-propyl theophylline, 7-(β-3-hydroxyethyl)theophylline, xanthine, theophylline, and 1,7-dimethyl-3-isobutyl xanthine.
# [3] = system: glioma; assay: Soft agar assay (colony formation); type: cell-based, human; conditions: 0.5, 1, 2, 5, 10 mM caffeine; 14 to 17 days; dose dependent
# Experimental: Cells (1×10^4) were seeded into 6-well plates in a soft agar (0.3%, Difco) overlaying a 0.6% base agar. […] Cells were incubated at 37° C. for 14 to 17 days to allow colonies to develop. Afterward colonies were stained with 0.05% cresyl violet and photographed. The group without caffeine treatment was used as a control. Each assay was done in triplicate (n=3).
# [4] = system: U178MG, U87MG, U373MG, and T98G cells; assay: Matrigel invasion assay; type: cell-based, human; conditions: 24 h; 1, 2, 5, 10 mM caffeine; dose dependent
# Experimental: The cell lines were obtained from ATCC. […] Cell invasion was assayed using transwell inserts (Corning, N.Y., USA) containing […] pore size in 24-well culture plates. For invasion assay, inserts were coated with 2 mg/ml basement membrane Matrigel (BD Bioscience, Bedford, Mass., USA). 1×10^5 cells in serum-free medium (FBS, DMEM, from GIBCO, Invitrogen, USA) were plated onto the upper side of insert and complete medium was placed in the lower chamber to act as a chemoattractant. After 24 h of incubation at 37° C., the cells on the upper side of insert were removed by wiping with a cotton swab and cells migrated to the lower side of membrane were stained with DAPI (Molecular Probes, Invitrogen, USA) and randomly photographed with microscopy at ×40 magnification. The mean number of untreated cells was considered as 100% invasion.
# [5] = system: U178MG cells; assay: Dependence of caffeine action on store-operated channels or store depletion; type: cell-based, human; conditions: 10 mM caffeine; thapsigargin 1 μM, cyclopiazonic acid 20 μM
# Experimental: Firstly, 1 μM thapsigargin was applied for 2 min in Ca^2+ free HEPES buffer. After depletion of Ca^2+ from endoplasmic reticulum, extra solution was changed to 2 mM Ca^2+HEPES buffer.
# [6] = system: U87MG cells; assay: Orthotropic implantation model, survival rate; conditions: 1 mg/ml caffeine containing drinking water
# [7] = system: GBM, U178MG, T98G, U87MG and HEK293; assay: Block against GPCR agonist-induced intracellular Ca2+ release in various cell types; type: cell-based, human; conditions: 10 mM caffeine
# Experimental: The cell lines were obtained from Department of Neurosurgery, Seoul National University College of Medicine (GBM), Emory Uni. ([…]) and ATCC (T98G, U87MG, and HEK293), respectively. […] Error bars are mean±SEM.
# [8] = system: U87MG cells; assay: Xenograft tumor growth assay; type: in vivo, athymic mice (Balb/c nu/nu); conditions: caffeine 1 mg/ml in drinking water from day 7; 4 weeks
# Experimental: Five-week-old athymic mice (Balb/c nu/nu) were obtained from Central Lab. Animal Inc. (Japan). For the xenograft tumor growth assay, U87MG cells (3×10^5 cells/150 ul PBS) were injected subcutaneously into the right flanks of the mice (n=5 to 10 mice per group), and the experiment was conducted in triplicate. […] The control animals were given distilled water. Tumor mass was estimated twice per week for 4 weeks, and tumor volumes were calculated by the formula: […]
# [9] = system: U178MG glioma cells; assay: Invasion of U178MG glioma cells in organotypic hippocampal slice cultures (OHSCs); type: cell-based, human; conditions: 1, 2, 5, 10 mM caffeine; 120 hours vs 1 hour; proportional to concentration
# [10] = system: shRNA for IP3R3 expressing U178MG cells; assay: Block against Ca2+ responses in U178MG cells expressing shRNA for IP3R3; type: cell-based, human
# Experimental: FIGS. 6d and 6e are Ca^2+ imaging result for U178MG cells, which were transfected with GFP-attached shRNA for IP3R3 via electroporation.
# [11] = system: U178MG cells; assay: Live imaging of cell migration; type: cell-based, human; conditions: 10 minute intervals for 9 hours
compound,measurement,setting,value
ryanodine,motility (wound closure by cell migration),[1],did not show any cell migration as such
O=c1[nH]c(=O)c2[nH]cnc2[nH]1 [xanthine],blocking effect on IP3R3 mediated-Ca2+ response,"[2]; caffeine analogs, FIG. 10c",excellent selective blocking effect
CC(=O)OCOC(=O)CN(CC(=O)OCOC(C)=O)c1ccccc1OCCOc1ccccc1N(CC(=O)OCOC(C)=O)CC(=O)OCOC(C)=O [BAPTA-AM],motility (wound closure by cell migration),[1],mimicked
"CC(C)Cn1c(=O)n(C)c(=O)c2c1ncn2C [1,7-dimethyl-3-isobutyl xanthine]",blocking effect on IP3R3 mediated-Ca2+ response,"[2]; caffeine analogs, FIG. 10c",excellent selective blocking effect
CCn1cnc2c1c(=O)n(C)c(=O)n2C [7-ethyl theophylline],TFLLR induced Ca2+ release,[2]; 30 μM TFLLR,no inhibition
COc1ccc2c(c1)CC[C@@H]1[C@@H]2CC[C@]2(C)[C@@H](NCCCCCCN3C(=O)C=CC3=O)CC[C@@H]12 [U73122],release of Ca2+ from intracellular stores in response to activation of GPCRs and RTKs,[2]; GBM cells,completely inhibited
C/C=C(/C)C(=O)O[C@H]1C(C)=C2[C@H]([C@@H]1OC(=O)CCCCCCC)[C@@](C)(OC(C)=O)C[C@H](OC(=O)CCC)[C@@]1(O)[C@H]2OC(=O)[C@@]1(C)O [thapsigargin],motility (wound closure by cell migration),[1],mimicked
same,subsequent induction increase in [Ca2+]i by bradykinin after store depletion,[2]; store depletion by thapsigargin,completely inhibited
Cn1c(=O)c2c(ncn2C)n(C)c1=O [caffeine],proliferation / anchorage-independent growth (colonies),[3],reduced the anchorage-independent growth; also recorded: significantly inhibited
same,invasion through Matrigel,[4],reduced the invasion rate; also recorded: significantly inhibited
same,"cause of Ca2+ block (store depletion, store-operated channels)",[5],not due to Ca^2+ depletion or block of Ca^2+ flow through TRPC
same,survival rate,[6],significantly increase the survival rate
same,"GPCR-induced intracellular Ca2+ release in GBM, U178MG, T98G, U87MG and HEK293",[7],inhibited
same,"degree of inhibition of Ca2+ responses, U178MG cells compared with other cell types",[7],highest blocking effect
same,intracellular Ca2+ release,[7]; 10 μM bradykinin,blocked
same,"intracellular Ca2+ release / Ca2+ responses, HEK293T cell line",[7]; 30 μM TFLLR,blocked; also recorded: lowest blocking effect
same,increase of tumor mass,[8],significantly inhibited
same,invasion area of DiI-stained cells,[9],invasion area was reduced
same,"block against Ca2+ responses, IP3R3 silenced by shRNA",[10],20%
same,migration of U178MG cells,[11],significantly slowed down
same,increase of [Ca2+]i after stimulation with EGF or bradykinin,"[2]; 10 mM caffeine, 100 ng/ml EGF or 10 μM bradykinin",no significant increase
same,TFLLR induced Ca2+ release,[2]; 30 μM TFLLR,inhibited
same,increase of TFLLR-induced intracellular Ca2+ concentration,"[2]; 0.3, 3, 10, 30 mM caffeine, 30 μM TFLLR, concentration dependent",inhibits the increase
same,pIC50,"[2]; EGF 100 ng/ml, read-out: IC50, Ca2+ release evoked by EGF",2.73
same,pIC50,"[2]; TFLLR 30 μM, read-out: IC50, Ca2+ release evoked by TFLLR",2.61
NCCOB(c1ccccc1)c1ccccc1 [2-APB],motility (wound closure by cell migration),[1],mimicked
CC(C)n1cnc2c1c(=O)n(C)c(=O)n2C [iso-propyl theophylline],blocking effect against Ca2+ release (% block),"[2]; caffeine analogs, FIG. 10c",some degree of blocking effects
same,blocking effect on IP3R3 mediated-Ca2+ response,"[2]; caffeine analogs, FIG. 10c",excellent selective blocking effect
Cn1c(=O)c2[nH]cnc2n(C)c1=O [theophylline],blocking effect on IP3R3 mediated-Ca2+ response,"[2]; caffeine analogs, FIG. 10c",excellent selective blocking effect
Cn1c(=O)c2c(ncn2CCO)n(C)c1=O [7-(β-3-hydroxyethyl)theophylline],blocking effect on IP3R3 mediated-Ca2+ response,"[2]; caffeine analogs, FIG. 10c",excellent selective blocking effect
